# Data published in patent US20250339434A1, “TREATING NEUROLOGIC DISEASES” (priority 2024, published 2025).
# Where “and” joins values, the source holds several entries; their conditions need not be identical. Equal values may be shown once. Entries after “also recorded” stand apart in the source; their conditions may differ. Marks after values point to notes of the source that are not given here.
# Key:
# patients with ASD [1] = assay: SRS scores in patients with ASD tested for FRAAs and sFBPs: effect of leucovorin and concurrent treatments; assay type: in vivo, human; details: for Association of concurrent treatment with SRS scores: concurrent treatments
# Description: (§1) In other tests, many patients with ASD were tested for FRAAs and sFBPs to guide clinical management by identifying the clinical characteristics associated with these biomarkers and to determine whether the biomarkers could predict treatment response.
# This is due to two opposing effects. It appears that those with higher binding FRAAs that were not treated with leucovorin had more severe ASD symptoms than those with low binding FRAA titers. In contrast, those with higher FRAA titers who were treated with leucovorin appear to have less severe ASD symptoms than those that were treated and had lower binding FRAA titers. […] Those patients with some of the highest binding FRAA titers can have, on average, a eight-to-sixteen point favorable response on SRS subscales, an amount that can move them into more favorable severity categories.
# FIGS. 8A-E are a collection of five charts illustrating results of factoring in a titer of binding autoantibody with the folate treatment when applied to several patients, where the results are shown on a Social Responsiveness Scale.
# (§2) The following two tables indicate some treatments and a statistically significant effect of concurrent treatments. β indicates an effectiveness on a certain outcome measure. In Table 2 and 3, a negative value for beta indicates a positive result.
# [2] = system: sFBP positive human subjects (patients) with ASD; assay: Social Responsiveness Scale (SRS) scores before and after leucovorin in sFBP positive patients; assay type: in vivo
# Description: Turning now to FIGS. 2A-F, six figures indicate results of treatments when using the process (100) of FIG. 1. In sFBP positive human subjects (patients) started on the standard dose of leucovorin (25 mg twice a day) but in 6 of 12 (50%), the dose of leucovorin was increased to 50 mg twice a day in order to obtain an effective response as judged by the ongoing clinical evaluation. The number of days treated with leucovorin ranged from 92 to 1022 days with an average (SD) number of 584 (333) days of treatment. The graphs of FIGS. 2A-F illustrate the patients' responses using a Social Responsiveness Scale (SRS, which is known in the field, so will not be explained in detail herein). The difference in SRS scores was compared before and after the start of leucovorin treatment. The Total score decreased by 7.4 (1.4) t-score points with leucovorin treatment [F(1,44.6)=28.03, p<0.001, Cohen's d′=1.4]. The Awareness subscale decreased by 8.0 (1.9) t-score points with leucovorin treatment [F(1,45.9)=18.01, p<0.001, Cohen's d′=1.1]. The Cognition subscale decreased by 8.5 (1.8) t-score points with leucovorin treatment [F(1,45.4)=21.64, p<0.001, Cohen's d′=1.2]. The Communication subscale decreased by 8.9 (1.6) t-score points with leucovorin treatment [F(1,44.6)=31.22, p<0.001, Cohen's d′=1.4]. The Motivation subscale decreased by 6.9 (2.1) t-score points with leucovorin treatment [F(1,44.8)=10.91, p<0.01, Cohen's d′=0.9]. The Mannerisms subscale decreased by 4.3 (1.9) t-score points with leucovorin treatment [F(1,45.0)=[…], p=0.03, Cohen's d′=0.6]. To determine an estimate of the timing of the effect of leucovorin treatment, linear regression models were used to determine the change in SRS scores with each day of leucovorin treatment, as shown in FIGS. 2A-F. The Total score decreased by 0.01 (0.002) t-score points per day on leucovorin [F(1,46.6)=25.68, p<0.001]. The Awareness subscale decreased by 0.014 (0.003) t-score points per day on leucovorin [F(1,47.2)=19.74, p<0.001]. The Cognition subscale decreased by 0.013 (0.003) t-score points per day on leucovorin [F(1,47.4)=17.49, p<0.001]. The Communication subscale decreased by 0.013 (0.003) t-score points per day on leucovorin [F(1,46.2)=21.48, p<0.001]. The Motivation subscale decreased by 0.01 (0.004) t-score points per day on leucovorin [F(1,46.1)=8.27, p<0.01]. The Mannerisms subscale decreased by 0.008 (0.003) t-score points per day on leucovorin [F(1,46.2)=6.34, p=0.02].
# [3] = system: sFBP positive human subjects (patients) with ASD; assay: Aberrant Behavior Checklist (ABC) scores before and after leucovorin in sFBP positive patients; assay type: in vivo
# Source text: FIGS. 3A-F includes six charts that indicate results of treatments when using the process (100) of FIG. 1 using the Aberrant Behavioral Checklist (ABC, which is known in the field, so will not be explained in detail herein). The patients are the same as the patients in FIGS. 2A-F. Note that the scores/scales are different in FIGS. 3A-F, but the patients are the same and measured over the same time period as FIGS. 2A-F. The difference in ABC scores was compared before and after the start of leucovorin treatment. The Total score decreased by 20.2 (5.9) raw points with leucovorin treatment [F(1,44.8)=11.92, p=0.001, Cohen's d′=0.9]. The Irritability subscale decreased by 5.7 (2.1) raw points with leucovorin treatment [F(1,44.8)=7.56, p<0.01, Cohen's d′=0.6]. […] The Stereotypy subscale decreased by 2.2 (1.0) raw points with leucovorin treatment [F(1,46.4)=4.56, p<0.05, Cohen's d′=0.5]. The Hyperactivity subscale decreased by 6.8 (1.6) raw points with leucovorin treatment [F(1,43.8)=18.34, p<0.001, Cohen's d′=1.1]. […] To get an estimate of the timing of the effect of leucovorin treatment, linear regression models were used to determine the change in ABC scores with each day of leucovorin treatment, as shown in FIGS. 3A-F. The Total score decreased by 0.04 (0.01) raw points per day on leucovorin [F(1,46.3)=12.67, p=0.001]. The Irritability subscale decreased by 0.008 (0.004) raw points per day on leucovorin [F(1,46.5)=5.33, p<0.05]. The Social-Withdrawal subscale decreased by 0.01 (0.003) raw points per day on leucovorin [F(1,44.9)=13.85, p<0.001]. The Stereotypy subscale decreased by 0.004 (0.002) raw points per day on leucovorin [F(1,48.1)=6.17, p<0.05]. The Hyperactivity subscale decreased by 0.01 (0.003) raw points per day on leucovorin [F(1,44.6)=20.56, p<0.001].
# [4] = cited from earlier work
# patients with ASD [5] = assay: ABC scores in patients with ASD tested for FRAAs and sFBPs: effect of leucovorin and concurrent treatments; assay type: in vivo, human; details: for Effect on ABC Hyperactivity: concurrent treatments
# Description: as §1, §2
# individuals with ASD [6] = assay: Safety and tolerability in individuals with ASD; assay type: in vivo, human; details: vulnerable population (ASD)
# individuals with ASD [7] = details: cited from earlier work
# [8] = effect size, before vs after leucovorin
# [9] = sFBP positive patients, before vs after start of leucovorin
# [10] = effect of concurrent treatment, negative beta = positive result
compound,measurement,setting,value
"Nc1nc2c(c(=O)[nH]1)N(C=O)C(CNc1ccc(C(=O)N[C@@H](CCC(=O)O)C(=O)O)cc1)CN2 (mixture of isomers) [leucovorin, folinic acid]","SRS t-scores / ASD symptoms as binding FRAA titers increase, with leucovorin treatment",patients with ASD [1]; dependence on binding FRAA titer,less severe ASD symptoms when treated with leucovorin; also recorded: better (lower scores)
same,Favorable response on SRS subscales in patients with some of the highest binding FRAA titers,"patients with ASD [1]; on average, highest binding FRAA titers",eight-to-sixteen
same,Effect on core ASD symptoms,patients with ASD [1]; patients with ASD,improves core ASD symptoms
same,"Cohen's d′, SRS Awareness subscale",[2]; [8],1.1
same,"Cohen's d′, SRS Cognition subscale",[2]; [8],1.2
same,"Cohen's d′, SRS Communication subscale",[2]; [8],1.4
same,"Cohen's d′, SRS Mannerisms subscale",[2]; [8],0.6
same,"Cohen's d′, SRS Motivation subscale",[2]; [8],0.9
same,"Cohen's d′, SRS Total score",[2]; [8],1.4
same,Duration of treatment necessary for the 7-point improvement in the SRS,[2]; individuals positive for sFBPs,two years
same,SRS Awareness subscale decrease per day on leucovorin,[2]; linear regression model,0.014 (0.003) t-score points per day
same,SRS Cognition subscale decrease per day on leucovorin,[2]; linear regression model,0.013 (0.003) t-score points per day
same,SRS Communication subscale decrease per day on leucovorin,[2]; linear regression model,0.013 (0.003) t-score points per day
same,SRS Mannerisms subscale decrease per day on leucovorin,[2]; linear regression model,0.008 (0.003) t-score points per day
same,SRS Motivation subscale decrease per day on leucovorin,[2]; linear regression model,0.01 (0.004) t-score points per day
same,SRS Total score decrease per day on leucovorin,[2]; linear regression model,0.01 (0.002) t-score points per day
same,SRS score decrease with leucovorin (summary),[2]; sFBP positive patients,about 7 points
same,SRS Total score decrease with leucovorin treatment,"[2]; sFBP positive patients (12), before vs after start of leucovorin 25 or 50 mg twice a day, 92 to 1022 days, value (spread)",7.4 (1.4) t-score points
same,SRS Awareness subscale decrease with leucovorin treatment,[2]; [9],8.0 (1.9) t-score points
same,SRS Cognition subscale decrease with leucovorin treatment,[2]; [9],8.5 (1.8) t-score points
same,SRS Communication subscale decrease with leucovorin treatment,[2]; [9],8.9 (1.6) t-score points
same,SRS Mannerisms subscale decrease with leucovorin treatment,[2]; [9],4.3 (1.9) t-score points
same,SRS Motivation subscale decrease with leucovorin treatment,[2]; [9],6.9 (2.1) t-score points
same,"Cohen's d′, ABC Hyperactivity subscale",[3]; [8],1.1
same,"Cohen's d′, ABC Irritability subscale",[3]; [8],0.6
same,"Cohen's d′, ABC Social Withdrawal subscale",[3]; [8],0.9
same,"Cohen's d′, ABC Stereotypy subscale",[3]; [8],0.5
same,"Cohen's d′, ABC Total score",[3]; [8],0.9
same,Duration of treatment required for the 5.7 improvement in irritability on the ABC,[3]; individuals positive for sFBPs,two years
same,ABC Hyperactivity subscale decrease per day on leucovorin,[3]; linear regression model,0.01 (0.003) raw points per day
same,ABC Inappropriate Speech subscale change per day on leucovorin,[3]; linear regression model,did not change significantly
same,ABC Irritability subscale decrease per day on leucovorin,[3]; linear regression model,0.008 (0.004) raw points per day
same,ABC Social-Withdrawal subscale decrease per day on leucovorin,[3]; linear regression model,0.01 (0.003) raw points per day
same,ABC Stereotypy subscale decrease per day on leucovorin,[3]; linear regression model,0.004 (0.002) raw points per day
same,ABC Total score decrease per day on leucovorin,[3]; linear regression model,0.04 (0.01) raw points per day
same,ABC Hyperactivity subscale decrease with leucovorin treatment,[3]; [9],6.8 (1.6) raw points
same,ABC Inappropriate Speech subscale change with leucovorin treatment,[3]; [9],did not change significantly
same,ABC Irritability subscale decrease with leucovorin treatment,[3]; [9],5.7 (2.1) raw points and 5.7 raw points
same,ABC Social Withdrawal subscale decrease with leucovorin treatment,[3]; [9],5.8 raw points
same,ABC Stereotypy subscale decrease with leucovorin treatment,[3]; [9],2.2 (1.0) raw points
same,ABC Total score decrease with leucovorin treatment,[3]; [9],20.2 (5.9) raw points
same,Absorption following oral administration,[4],rapidly absorbed
same,Effect on ABC Irritability,patients with ASD [5],only improved Irritability; also recorded: overall improving irritability
same,Safety and tolerability,individuals with ASD [6],extremely safe and well-tolerated
C[N+](C)(C)CC(O)CC(=O)[O-] (centres unmarked) [Carnitine],"β, SRS Motivation",patients with ASD [1]; [10],−2.3 (1.0)*
same,Effect on ABC Hyperactivity,patients with ASD [5],improve ABC Hyperactivity
same,Effect on ABC Hyperactivity,patients with ASD [5]; listed as carnitine,better score on ABC Hyperactivity
same,Effect on core ASD symptoms in two DBPC studies,individuals with ASD [7],improve core ASD symptoms
"C/C1=C2/[N-][C@H]([C@H](CC(N)=O)[C@@]2(C)CCC(=O)NC[C@@H](C)OP(=O)([O-])O[C@H]2[C@@H](O)[C@@H](n3cnc4cc(C)c(C)cc43)O[C@@H]2CO)[C@]2(C)N=C(/C(C)=C3N=C(/C=C4N=C1[C@@H](CCC(N)=O)C\4(C)C)[C@@H](CCC(N)=O)[C@]\3(C)CC(N)=O)[C@@H](CCC(N)=O)[C@]2(C)CC(N)=O.[CH3-].[Co+3] [mB12 SQ, Methyl-cobalamin]","β, SRS Cognition",patients with ASD [1]; [10],−4.3 (1.3)***
same,"β, SRS Motivation",patients with ASD [1]; [10],−3.2 (1.3)*
same,"β, SRS Total","patients with ASD [1]; effect of concurrent treatment, negative beta = positive result, value (spread)",−2.8 (1.1)**
same,Association of concurrent treatment with SRS scores,patients with ASD [1]; patients with ASD,"improve the SRS Total score, as well as all subscales except SRS Awareness"
same,Association of concurrent treatment with SRS scores,"patients with ASD [1]; patients with ASD, listed as mB12 Subcutaneous",better SRS scores on a few subscales
